Test results taken from patent publication US20250368952A1, “Methods for Culturing Organoids” (Cellesce Limited, priority 2016, published 2025).
“Also recorded” adds a separate entry of the source.

System: ISO50 (Isolation number 50) colorectal cancer organoids
Assay: Drug titration assay on colorectal cancer organoids cultured in a fed-plate bioreactor (confocal imaging, morphometric analysis)
Type: cell-based
Conditions: 5 days
Protocol: ISO50 (Isolation number 50) colorectal cancer organoids were cultured in a fed-plate bioreactor for 3 days, recovered from the MATRIGEL™ and stored frozen at −80° C. They were subsequently revived and used to seed a 384-well plate at a density of 350 organoids per well in 12 μl MATRIGEL™. The organoids were fed with 25 μl growth medium containing 0-2.5 μM MK1775, a WEE1 inhibitor (8 replicates). After 5 days, the organoids were fixed and stained with Hoechst (blue fluorescent stain specific for DNA i.e. nuclei of eukaryotic cells) and phalloidin (pink stain for F-actin). […] The actin filaments are spread throughout the structures, but are more concentrated in the lumen, in the centre of the organoid. Representative organoids are pictured from selected wells at each concentration. The overall shape of organoids in an untreated culture, or at low concentrations of inhibitor, can vary from round and cyst-like to convoluted and branched. […] Morphometric analysis of over 1000 parameters of the organoids confirmed the observations of toxicity.

C=CCn1c(=O)c2cnc(Nc3ccc(N4CCN(C)CC4)cc3)nc2n1-c1cccc(C(C)(C)O)n1 [MK1775]
Organoid morphology (confocal imaging, Hoechst and phalloidin staining) (0-2.5 μM in growth medium, 384-well plate, 350 organoids per well, 8 replicates, FIG. 3A): cells are shed from the outer layer of the organoid, leading to a loss in complexity and a decrease in the overall size; also recorded: cells are shed from the outer layer of the organoid, leading to a loss of complexity and a decrease in the overall size
Apoptotic nuclei (morphometric analysis) (0-2.5 μM, FIG. 3B): increase with drug concentration
Nuclei roundness (due to swelling before apoptosis; morphometric analysis) (0-2.5 μM, FIG. 3B): increase with drug concentration
Organoid size (morphometric analysis) (0-2.5 μM, FIG. 3B): decreases with increasing concentrations of inhibitor
